Several values for one entry are separate records, joined by “and”; a condition that tells them apart may be missing. Equal values may be shown once.
Key:
[1] = Polymorphism: solid forms found in salt screen by HT-XRPD; format: physicochemical; conditions: Example 1 salt screen in MeOH, DME, THF
Method: The precipitated solids were analyzed by high throughput X-ray powder diffractometry (HT XRPD). Liquid phases (both solutions and mother liquors) were evaporated at ambient conditions and the residual solids were analyzed by HT XRPD.
The salt screen experiments were carried out in methanol (MeOH), 1,2-dimethoxyethane (DME) and tetrahydrofuran (THF).

[2] = Aqueous solubility of salts, Example 1 (aliquot addition; HPLC after 24 h at RT; pH of solutions/mother liquors); conditions: Example 1; RT; aliquot addition (ranges) or HPLC after 24 h, not in Table 3
Method: The aqueous solubility of the salts was estimated qualitatively by the solvent aliquot addition method. Aliquots of water up to 500-600 μL were added to approximately 5 mg of salt. The solubility of the free base was also estimated.
The suspensions were let equilibrating at room temperature for 24 h. Afterwards, solids were separated from the liquid phases. The liquid phases were filtered and analyzed by HPLC to determine the solubility. The pH of solutions/mother liquors was also measured.
Suspensions of the two salts were prepared in water with a concentration of 9-10 mg/mL. The mixtures were let equilibrating at RT for 24 h. Afterwards, solids were separated from the liquid phases. The liquid phases were filtered and analyzed by HPLC to determine the solubility. The pH of mother liquors was also measured.

[3] = Hygroscopicity by Dynamic Vapor Sorption (DVS); format: physicochemical; conditions: based on water vapour uptake at 25° C./80% RH
Method: The hygroscopic behaviour of the salts was evaluated through Dynamic Vapor Sorption (DVS) measurements with an RH profile 40-95-0-40% at 25° C. and a dm/dt of 0.002. The classification of the hygroscopic behaviour is based on the water vapour uptake at 25° C./80% RH in first adsorption cycle of sorption isotherm.

[4] = Polymorphic landscape by thermocycling of amorphous salt in 15 solvents; format: physicochemical; conditions: for polymorphs found: Example 3, thermocycling from amorphous salt, 15 solvents; for HT-XRPD Vac.: vacuum-dried solid; for HT-XRPD Vac. (AAC): vacuum-dried solid after AAC 48 h; for HT-XRPD Evap.: evaporated liquid; for HT-XRPD Evap. (AAC): evaporated liquid after AAC 48 h
[5] = Intrinsic dissolution rate (rotating disc, μDiss) in water and FaSSIF; format: physicochemical; conditions: for IDR (mg/cm^2/min) Individual: single disc
Method: Rotating disc intrinsic dissolution determinations were performed with a μDiss apparatus (Pion, USA) equipped with 6 independent glass fiber probes each connected to a diode area. Before the start of the experiment the probes were calibrated using the spectrum of a Mercury 362 nm pen-ray lamp. Discs were prepared in a passivated aluminum dye with a mini-IDR press (Heath Scientific, UK).
Six dilutions of benzamil lactate salt were prepared in the dissolution media in the range from 0 to 0.5 mg/mL, and the solutions were stirred with a cross-shaped magnetic stirrer. These dilutions were used for the calibration curve which is used for the calculation of the amount of benzamil in solution. Moreover, the solutions were used to select the wavelength at which the samples were to be measured and to select the proper path length.
The dyes were placed in their Teflon holder magnet stirrer and placed into 20 mL glass vials. Before to the sample measurement, a blank of each media was taken in the respective channel. The experiment started by the gentle addition of the pre-warmed dissolution media. Vials were incubated at 37° C. under continuous stirring at 100 rpm for a maximum of 4 h. UV absorption was measured with the in-line probes at regular intervals. Upon completion of the experiment the pH of the solution was determined. Concentrations of API in solution were calculated with use of the calibration curve and plotted against time. Dissolution rates were calculated over the linear parts of the curves. All dissolution rate experiments were done in triplicate except for TFA1 which were done in duplicate due to the lack of material.

[6] = Physio-chemical stability study, open container 25° C./60% RH and 40° C./75% RH (UPLC, TGMS, HT-XRPD); format: physicochemical; conditions: for UPLC 1 week / UPLC 3 weeks / UPLC 3 days: chemical purity
Method: Open container at 25° C. and 60% RH • 2. Open container at 40° C. and 75% RH

[7] = Kinetic and thermodynamic solubility in water at 37° C. (1 h and 18 h, UPLC)
[8] = Physical stability under Accelerated Aging Conditions (AAC, 40° C./75% RH, 2 days), HT-XRPD
[9] = thermocycling in Acetone/water (95/5% v/v)
[10] = thermocycling in EtOH/water (95/5% v/v)
[11] = thermocycling in IPA/water (95/5% v/v)
[12] = open container 25° C. and 60% RH
[13] = open container 40° C. and 75% RH
[14] = water, 37° C., 30 mg/ml suspension

With `CC(O)C(=O)O.NC(=NCc1ccccc1)NC(=O)c1nc(Cl)c(N)nc1N` [LAC1] the Polymorphism [1] was “No”, the Polymorphism ([1]; listed as lactate salt) was “Only one polymorph” and the Water solubility [2] was 26 to 51 mg/mL. The “classification of hygroscopic behaviour” value [3] was “slightly hygroscopic”, the polymorphs found ([4]; listed as benzamil lactate salt) was “not to be polymorphic” and the polymorphs found ([4]; listed as lactate salt) was “Only one polymorph”. The “HT-XRPD Vac.” value ([4]; thermocycling in 1,4-Dioxane) was “LAC1”, the “HT-XRPD Vac. (AAC)” value ([4]; thermocycling in 1,4-Dioxane) was “LAC1” and the “HT-XRPD Vac.” value ([4]; thermocycling in ACN) was “LAC1”. For the same compound, the “HT-XRPD Vac. (AAC)” value ([4]; thermocycling in ACN) was “LAC1”, the “HT-XRPD Vac.” value ([4]; thermocycling in Acetone) was “LAC1” and the “HT-XRPD Vac. (AAC)” value ([4]; thermocycling in Acetone) was “LAC1”. For the same compound, the “HT-XRPD Vac.” value [4, 9] was “LAC1”, the “HT-XRPD Vac. (AAC)” value [4, 9] was “LAC1” and the “HT-XRPD Vac.” value ([4]; thermocycling in DME) was “LAC1”. The “HT-XRPD Vac. (AAC)” value ([4]; thermocycling in DME) was “LAC1”, the “HT-XRPD Vac.” value ([4]; thermocycling in EtOAc) was “LAC1” and the “HT-XRPD Vac. (AAC)” value ([4]; thermocycling in EtOAc) was “LAC1”. The “HT-XRPD Vac.” value ([4]; thermocycling in EtOH) was “LAC1”, the “HT-XRPD Vac. (AAC)” value ([4]; thermocycling in EtOH) was “LAC1” and the “HT-XRPD Evap.” value [4, 10] was “LAC1”. For the same compound, the “HT-XRPD Evap. (AAC)” value [4, 10] was “LAC1”, the “HT-XRPD Vac.” value [4, 10] was “LAC1” and the “HT-XRPD Vac. (AAC)” value [4, 10] was “LAC1”. The “HT-XRPD Vac.” value ([4]; thermocycling in IPA) was “LAC1”, the “HT-XRPD Vac. (AAC)” value ([4]; thermocycling in IPA) was “LAC1” and the “HT-XRPD Vac.” value [4, 11] was “LAC1”. For the same compound, the “HT-XRPD Vac. (AAC)” value [4, 11] was “LAC1”, the “HT-XRPD Vac.” value ([4]; thermocycling in MEK) was “LAC1” and the “HT-XRPD Vac. (AAC)” value ([4]; thermocycling in MEK) was “LAC1”. The “HT-XRPD Evap.” value ([4]; thermocycling in MeOH) was “Oil”, the “HT-XRPD Evap. (AAC)” value ([4]; thermocycling in MeOH) was “Oil” and the “HT-XRPD Vac.” value ([4]; thermocycling in TBME) was “LAC1”. The “HT-XRPD Vac. (AAC)” value ([4]; thermocycling in TBME) was “LAC1”, the “HT-XRPD Vac.” value ([4]; thermocycling in THF) was “LAC1” and the “HT-XRPD Vac. (AAC)” value ([4]; thermocycling in THF) was “LAC1”. The “HT-XRPD Evap.” value ([4]; thermocycling in Water) was “LAC1”, the “HT-XRPD Evap. (AAC)” value ([4]; thermocycling in Water) was “LAC1” and the “HT-XRPD Vac.” value ([4]; thermocycling in Water) was “ly”. The “HT-XRPD Vac. (AAC)” value ([4]; thermocycling in Water) was “ly”, the “dissolution rate compared with TFA2 and TFA1” value [5] was “significantly faster” and the “IDR (mg/cm^2/min) Average” value ([5]; FaSSIF, 37° C., 100 rpm) was 0.39 ± 0.11 mg/cm^2/min. The “IDR (mg/cm^2/min) Individual” value ([5]; FaSSIF, 37° C., 100 rpm) was 0.285 mg/cm^2/min and 0.510 mg/cm^2/min and 0.389 mg/cm^2/min, the “IDR (mg/cm^2/min) Average” value ([5]; Water, 37° C., 100 rpm) was 1.87 ± 0.06 mg/cm^2/min and the “IDR (mg/cm^2/min) Individual” value ([5]; Water, 37° C., 100 rpm) was 1.870 mg/cm^2/min and 1.811 mg/cm^2/min and 1.933 mg/cm^2/min. For the same compound, the “time until the whole tablet has been dissolved” value ([5]; water, 37° C.) was “about 50 min”, the “Intrinsic Dissolution Rate (IDR)” value ([5]; water, 37° C., 100 rpm, linear part (LAC1 1 to 36 min; TFA 10-100 min)) was 1.87±0.06 mg/cm^2/min and the “UPLC t0” value ([6]; chemical purity at start of stability study) was 99.4%. For the same compound, the “UPLC 1 week” value [6, 12] was 99.4%, the “UPLC 3 weeks” value [6, 12] was 99.4% and the “UPLC 3 days” value [6, 12] was 99.4%. For the same compound, the “UPLC 1 week” value [6, 13] was 99.2%, the “UPLC 3 weeks” value [6, 13] was 99.4% and the “UPLC 3 days” value [6, 13] was 99.4%. For the same compound, the “physical and chemical stability” value ([6]; incubation for 3 weeks at 25° C./60% RH and 40° C./75% RH) was “physically and chemically stable”, the “TGMS 1 week” value [6, 12] was <0.1% water and the “XRPD 1 week” value [6, 12] was “LAC1”. For the same compound, the “TGMS 3 weeks” value [6, 12] was <0.1% water, the “XRPD 3 weeks” value [6, 12] was “LAC1” and the “TGMS 3 days” value [6, 12] was 1.2% water. For the same compound, the “XRPD 3 days” value [6, 12] was “LAC1”, the “TGMS 1 week” value [6, 13] was 0.2% water and the “XRPD 1 week” value [6, 13] was “LAC1”. For the same compound, the “TGMS 3 weeks” value [6, 13] was <0.1% water, the “XRPD 3 weeks” value [6, 13] was “LAC1” and the “TGMS 3 days” value [6, 13] was 1.5% water. For the same compound, the “XRPD 3 days” value [6, 13] was “LAC1”, the “TGMS t0” value ([6]; start of stability study) was 0.4% water and the “XRPD t0” value ([6]; start of stability study) was “LAC1”. For the same compound, the “solubility compared with the TFA salts” value ([7]; overall conclusion of Example 3) was “significantly higher solubility”, the “XRPD 1 h Amb.” value ([7]; residual solid after 1 h in water at 37° C., ambient-dried) was “LAC1” and the “XRPD 1 h Vac.” value ([7]; residual solid after 1 h in water at 37° C., vacuum-dried) was “LAC1”. The “XRPD 18 h Amb.” value ([7]; residual solid after 18 h in water at 37° C., ambient-dried) was “Am”, the “XRPD 18 h Vac.” value ([7]; residual solid after 18 h in water at 37° C., vacuum-dried) was “LAC1” and the “pH after 10 min” value [7, 14] was 5.9. For the same compound, the “pH after 1 h” value [7, 14] was 5.8, the “pH after 18 h” value [7, 14] was 5.8 and the “Solubility (mg/mL) 1 h” value ([7]; water, 37° C., 1 h (kinetic), UPLC) was 24.3 mg/mL. The “Solubility (mg/mL) 18 h” value ([7]; water, 37° C., 18 h (thermodynamic), UPLC) was 23.6 mg/mL, the “Physically stable?” value ([8]; AAC, 2 days at 40° C. and 75% RH, solids from thermocycling) was “Yes” and the “Physically stable after AAC” value ([8]; Example 1, 40° C./75% RH for 2 days) was “physically stable and Yes”. The “physical stability upon exposure to AAC” value ([8]; Example 3 thermocycling solids, 2 days at 40° C. and 75% RH) was “physically stable”.

Source: patent US20250002463A1, “NEW SALT FORMS OF AMILORIDE AND ITS DERIVATIVES FOR PHARMACEUTICAL USE” (PSOMRI Holding AB, priority 2021, published 2025)
